This passage reports active concentration results from PubChem BioAssay AID977613 (Broad Institute, 2014).

The test has as its system Broad 7084-01 inhibitor HTS, set 2. As to the kind of experiment: inhibitors in Broad screen 7084-01, set 2 (AID 977613).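 Note: host cells are infected with parasite promastigotes that become internalized.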

Each structure is given as a SMILES string. Activity calls are given as the source filed them. The rule behind the calls is not given here.

As to `COc1ccccc1-c1ccccc1[C@H]1[C@@H](C#N)N(C(=O)CN(C)C)[C@@H]1CO`, the active concentration was > 10 µM (inactive).
To `COc1ccccc1NC(=O)N1CC(=O)N2[C@H](CO)[C@@H](c3ccc(-c4cccc(C)c4)cc3)[C@@H]2C1` belongs > 10 µM (inactive); to `COc1ccc(-c2ccc3c(c2)[C@@H]2[C@@H](CCN2C(=O)CN2CCOCC2)[C@H](CO)N3)cc1`, > 10 µM (inactive).
With `O=C(C[C@@H]1CC[C@@H]2[C@H](COC[C@H](O)CN2C(=O)Nc2cc(Cl)cc(Cl)c2)O1)NCC1CCCCC1`, the active concentration was > 10 µM (inactive).
Take `CN1c2ccc(C#Cc3cccnc3)cc2[C@H]2[C@H](CCN2C(=O)C2CCCCC2)[C@H]1CO`: the active concentration is > 10 µM (inactive).
To `O=C(c1ccccn1)N1CC2(C1)[C@H](c1ccccc1)[C@@H](CO)N2Cc1ccccc1` belongs > 10 µM (inactive).
The result for `CCNC(=O)C[C@H]1CC[C@@H]2[C@H](COC[C@H](O)CN2C(=O)C2CC2)O1` reads > 10 µM (inactive).
To `COc1ccccc1C(=O)Nc1ccc2c(c1)C(=O)N(C)[C@@H]1CC[C@@H](CC(=O)NCCc3ccncc3)O[C@H]1CO2` belongs > 10 µM (inactive).
Regarding `O=C(Nc1cc(F)ccc1F)N1CCCCN2[C@H](C1)[C@H](c1ccc(C3=CCCCC3)cc1)[C@@H]2CO`, the active concentration was > 10 µM (inactive).
Take `Cc1nn(C)cc1NC(=O)C[C@H]1CC[C@H]2[C@@H](COc3ccc(NC(=O)C4CCOCC4)cc3C(=O)N2C)O1`: the active concentration is > 10 µM (inactive).
The result for `C/C=C/c1ccc([C@H]2[C@H]3CN(S(=O)(=O)c4ccccc4)CC(=O)N3[C@H]2CO)cc1` reads > 10 µM (inactive); that for `O=C(C[C@@H]1CC[C@@H]2[C@H](COC[C@@H](O)CN2CC2CC2)O1)NCC1CC1`, > 10 µM (inactive); that for `OC[C@@H]1[C@H](c2ccc(Br)cc2)[C@H]2CN(Cc3ccccn3)CCCCN12`, > 10 µM (inactive).
To `O=C(c1cnccn1)N1CC[C@@H]2[C@H](CO)Nc3ccc(-c4ccccc4F)cc3[C@@H]21` belongs > 10 µM (inactive); to `O=S(=O)(c1ccccc1)N1CCCCN2[C@@H](CO)[C@@H](c3ccc(C#CC4CCCC4)cc3)[C@@H]2C1`, > 10 µM (inactive); to `O=C(C[C@H]1CC[C@H]2[C@@H](COC[C@@H](O)CN2Cc2cccc(C(F)(F)F)c2)O1)NCc1ccccc1`, > 10 µM (inactive).
To `O=C(Cc1ccccc1)N1C[C@H]2[C@@H](c3ccccc31)[C@@H](CO)N2C(=O)c1cccc(F)c1` belongs > 10 µM (inactive); to `COCC#Cc1ccc([C@@H]2[C@H]3CN(C(=O)Nc4ccccc4F)CC(=O)N3[C@H]2CO)cc1`, > 10 µM (inactive).
Consider `CN1CCN(C(=O)C[C@@H]2CC[C@@H]3[C@H](COC[C@H](O)CN3CC3CC3)O2)CC1`, for which the active concentration is > 10 µM (inactive).
With `CN(C)CC(=O)N1CCCCN2[C@@H](CO)[C@@H](c3ccc(/C=C/c4ccccc4)cc3)[C@@H]2C1`, the active concentration was < 10 µM.
`CCCNC(=O)N1[C@H](CO)[C@@H](c2ccccc2-c2ccccc2F)[C@@H]1C#N`: the active concentration is > 10 µM (inactive).
In the case of `CN(C)CC(=O)N1CCCCN2[C@H](C1)[C@@H](c1ccc(/C=C/c3ccccc3)cc1)[C@@H]2CO`, the active concentration was > 10 µM (inactive).
As for `CCCC#Cc1ccc([C@H]2[C@@H](CO)N3C(=O)CN(S(=O)(=O)c4ccccc4C)C[C@H]23)cc1`, the active concentration was > 10 µM (inactive).
To `COc1ccc(-c2ccc3c(c2)[C@@H]2[C@@H](CCN2C(=O)CN2CCOCC2)[C@@H](CO)N3)cc1` belongs > 10 µM (inactive); to `CN(C)CC(=O)N1C[C@@H]2[C@H](c3ccccc31)[C@H](CO)N2Cc1cc(F)ccc1F`, > 10 µM (inactive).
To `COc1ccc2c3c([nH]c2c1)[C@H](CO)N(S(=O)(=O)c1ccc(C)cc1)CC31CCN(Cc2nccs2)CC1` belongs > 10 µM (inactive).
The result for `OC[C@@H]1[C@H](c2ccc(C3=CCCC3)cc2)[C@H]2CN(Cc3ccncc3)CCCCN12` reads > 10 µM (inactive).
For the compound `O=C(C[C@@H]1CC[C@H]2[C@@H](COC[C@H](O)CN2Cc2cc(F)ccc2F)O1)NCc1ccc(F)cc1`, the active concentration was > 10 µM (inactive).
The result for `CC(C)NC(=O)Nc1ccc2c(c1)C(=O)N(C)[C@@H]1CC[C@H](CC(=O)NCc3ccc(F)cc3)O[C@@H]1CO2` reads > 10 µM (inactive).
The result for `CN1C(=O)c2cc(NS(C)(=O)=O)ccc2OC[C@@H]2O[C@H](CC(=O)NC3CCCCC3)CC[C@H]21` reads > 10 µM (inactive); that for `CN(C)C(=O)C[C@@H]1CC[C@@H]2[C@H](COC[C@H](O)CN2CC2CC2)O1`, > 10 µM (inactive); that for `COc1ccc2c3c([nH]c2c1)[C@@H](CO)N(C(=O)c1cccnc1)CC31CCN(C(=O)CN(C)C)CC1`, > 10 µM (inactive).
The result for `O=C(C[C@H]1CC[C@H]2[C@@H](COC[C@H](O)CN2C(=O)C2CC2)O1)NCc1ccncc1` reads > 10 µM (inactive); that for `C[C@H](O)C#Cc1ccc([C@@H]2[C@@H](CO)N3CCCCN(C(=O)c4ccc5c(c4)OCO5)C[C@H]23)cc1`, > 10 µM (inactive).
Take `CCC(=O)N1CC(=O)N2[C@H](CO)[C@@H](c3ccc(-c4ccc(C#N)cc4)cc3)[C@@H]2C1`: the active concentration was > 10 µM (inactive).
Take `Cc1ccccc1-c1ccccc1[C@@H]1[C@H](C#N)N(C(=O)c2cccc(F)c2)[C@H]1CO`: the active concentration was > 10 µM (inactive).
To `CCCNC(=O)N1[C@H](CO)[C@H](c2ccccc2-c2cccc(OC)c2)[C@@H]1C#N` belongs > 10 µM (inactive).
To `COc1cccc(NC(=O)N2C[C@@H](O)COC[C@H]3O[C@H](CC(=O)NC4CCC4)CC[C@@H]32)c1` belongs > 10 µM (inactive).
In the case of `CS(=O)(=O)N1C[C@H](O)COC[C@@H]2O[C@H](CC(=O)NCc3ccc(-c4ccccc4)cc3)CC[C@H]21`, the active concentration is > 10 µM (inactive).
For the compound `CC(C)NC(=O)N1[C@H](CO)[C@H](c2ccccc2-c2ccc(F)cc2)[C@@H]1C#N`, the active concentration is > 10 µM (inactive).
The result for `CCCNC(=O)N1[C@@H]2Cn3c(ccc(-c4ccccc4OC)c3=O)[C@H]1[C@@H](C(=O)NCC)[C@@H]2CO` reads > 10 µM (inactive).
To `O=C(c1cccc(F)c1)N1CCCCN2[C@H](C1)[C@@H](c1ccc(C#CC3(O)CCCC3)cc1)[C@@H]2CO` belongs > 10 µM (inactive).
To `CN(C)C(=O)[C@H]1[C@H](CO)[C@H]2Cn3c(ccc(-c4cncnc4)c3=O)[C@H]2N1Cc1cc(F)ccc1F` belongs > 10 µM (inactive); to `O=C(c1cnccn1)N1CC(=O)N2[C@@H](CO)[C@H](c3ccc(C#CC4CC4)cc3)[C@@H]2C1`, > 10 µM (inactive); to `COCC(=O)N1CC2(C1)CN(C(=O)NC1CCCC1)[C@H](CO)c1c2c2ccc(OC)cc2n1C`, > 10 µM (inactive).
Regarding `O=C(O)[C@H]1[C@H](CO)[C@H]2Cn3c(ccc(-c4cncnc4)c3=O)[C@H]2N1C(=O)C1CCCCC1`, the active concentration is > 10 µM (inactive).
